Key:
[1] = test system: neuroblastoma (IMR-32, IMR-5, AF8, SJ-N-KP); experiment: In vitro cytotoxicity assay, neuroblastoma cell lines; format: cell-based; conditions: Homo sapiens, 72 hours exposure, 0 to 100 μM, read-out: ED50 (half-maximal effective dose), cytotoxicity
Excerpt: (§2) tumors of neuroectodermic origin: neuroblastoma (IMR-32, IMR-5, AF8, SJ-N-KP), pPNET (TC32), Ewing's sarcoma (TC106), melanoma (Mel 23);

[2] = test system: Ewing's sarcoma (TC106); experiment: In vitro cytotoxicity assay, Ewing's sarcoma cells; format: cell-based; conditions: Homo sapiens, 72 hours exposure, 0 to 100 μM, read-out: ED50 (half-maximal effective dose), cytotoxicity
Excerpt: as §2

[3] = test system: hemopoietic progenitors cells from cord blood; experiment: Clonogenic test, CFU-GM from cord blood; format: cell-based; conditions: Homo sapiens, 336 h, methyl cellulose, 1-100 μM, 14 days, read-out: ED50 for the growth of CFU-GM colonies
Procedure: (§1) Clonogenic tests have also been carried out on hemopoietic progenitors cells, obtained from bone marrow (BM ? ) of healthy donors and from cord blood (CB □), and on neuroblastoma cells (SJ-N-KP ▪). The cell have been grown in methyl cellulose with scalar doses of AE in concentrations between 1 and 100 μM for 14 days.

[4] = Acute and chronic toxicity in Swiss mice; format: in vivo; conditions: i.p.
Procedure: In the first case assays on acute and chronic toxicity are carried out on Swiss mice (males aged 8-10 weeks) to show possible effects of general toxicity due to AE on weight, neurological and intestinal functions, and hematological parameters. The animals were treated with high doses by intraperitoneal route, between 30 mg/Kg/die and 50 mg/Kg/die, in one administration and with low doses, between 1 mg/Kg/die and 10 mg/Kg/die, for repeated dosages.
The animals were monitored to check possible neurological damages by means of periodically repeated behavioral tests, to check hematic toxicity by means of weekly hemochrome analyses, and to check intestinal toxicity by means of daily faeces analyses. Moreover, the animals have also been weighed twice a week during the whole test. At the end of the tests the animals have been killed and the autopsy has been conducted.

[5] = test system: hemopoietic progenitors cells from bone marrow of healthy donors; experiment: Clonogenic test, CFU-GM from bone marrow; format: cell-based; conditions: Homo sapiens, 336 h, methyl cellulose, 1-100 μM, 14 days, read-out: ED50 for the growth of CFU-GM colonies
Procedure: as §1

[6] = test system: acute lymphocytic leukemia lines (CEM, CEM VBL); experiment: In vitro cytotoxicity assay, leukemia lines; format: cell-based; conditions: Homo sapiens, 72 hours exposure, 0 to 100 μM, read-out: ED50 (half-maximal effective dose), cytotoxicity
Excerpt: tumors of different origin: T-cell leukemia (CEM) and T-cell leukemia vinblastine-resistant (CEM VBL), colon adenocarcinoma (LoVo 109) and colon adenocarcinoma doxorubicin-resistant (LoVo DX), cervix epithelioid carcinoma (HeLa);

[7] = In vitro cytotoxicity assay, normal fibroblasts; format: cell-based; conditions: human, normal lung fibroblasts (MRC5), 72 hours exposure, 0 to 100 μM, read-out: ED50 (half-maximal effective dose), cytotoxicity
Excerpt: normal cells: human lung fibroblasts (MRC5).

[8] = test system: neuroectodermal tumor cells

| SMILES | EC50 [1] | EC50 [2] | EC50 [3] | general toxicity (weight, neurological, intestinal, hematological) ([4]; 30-50 mg/Kg/die single or 1-10 mg/Kg/die repeated) | autopsy findings ([4]; at the end of the tests) | EC50 [5] | EC50 [6] | EC50 at 72 h [7] | cytotoxic effect [8] |
| --- | --- | --- | --- | --- | --- | --- | --- | --- | --- |
| O=C1c2cccc(O)c2C(=O)c2c(O)cc(CO)cc21 [AE, 1,8-dihydroxy-3-hydroxymethyl-9.10-anthracenedione] | 1 µM | 13 µM | 120 µM | No toxicity | not shown any damage to the main organs | 80 µM | 100 µM | 40 µM | – |
| O=C1c2c(O)cccc2C(C2O[C@H](CO)[C@@H](O)[C@H](O)[C@H]2O)c2cc(CO)cc(O)c21 (stereo partly drawn) [glycosylated form of AE, 10-1,5anhydroglucosyl-1,8-dihydroxy-3-hydroxymethyl-9-anthrone] | – | – | – | – | – | – | – | – | no cytotoxic effect |

From patent US6812255B2, “Use of aloe-emodin in the treatment of neuroectodermal tumors” (Universita Degli Studi Di Padova, priority 2002, dated 2004)
